The results in this text go back to ChEMBL document CHEMBL3739422, “Hydroxytyrosol-Derived Compounds: A Basis for the Creation of New Pharmacological Agents for Cancer Prevention and Therapy” (J Med Chem, 2015).

The subject of one data set is HeLa. Briefly: Antioxidant activity in human HeLa cells assessed as reduction in iron-reactive oxidative stress preincubated for 4 hrs prior to FeSO4 addition measured after 1 hr by TBARS assay. In kind it is functional. On the set-up: scale not given: the % may be the effect or the level left.
Data set [1] has as its system Platelet. In words: Inhibition of collagen-induced platelet aggregation in human whole blood preincubated for 10 mins prior to collagen addition measured after 10 mins by aggregometric analysis. In kind it is functional, tissue-based.
Data set [2] can be described thus: Cytotoxicity against human Caco2/TC7 cells assessed as growth inhibition after 24 hrs by WST-1 assay. Format: functional, cell-based. The note with it: Caco-2, 24 h. In general terms: Tetrazolium assays rely on reduction of a dye to a coloured formazan, in cell work by metabolically active cells.
The subject of data set [3] is Rattus norvegicus. In words: Induction of NO production in Wistar rat at 1 to 100 mg/kg, po qd administered for 7 days measured after 1 hr post last dose by enzyme immuno assay. In kind it is functional.
Data set [4] in a line: Cytotoxicity against human Caco2/TC7 cells assessed as growth inhibition at 5 uM after 24 hrs by WST-1 assay. Format: functional. The conditions noted are these: Caco-2, 24 h, read-out: GI.
For data set [5], the system named is Rattus norvegicus. In words: Inhibition of collagen-induced platelet aggregation in po dosed Wistar rat administered for 7 days measured after 1 hr post last dose by aggregometric analysis. In kind it is functional. The conditions noted are these: read-out: ID50 (the source's name).
Data set [6] concerns Rattus norvegicus. In words: Inhibition of A23187-induced TXA2 synthesis in Wistar rat at 1 to 100 mg/kg, po qd administered for 7 days measured after 1 hr post last dose by enzyme immunoassay. Format: functional.
Another data set deals with A549. Briefly: Cytotoxicity against human A549 cells assessed as cell viability after 48 hrs by MTT assay. In kind it is functional, cell-based. The conditions noted are these: A549, 48 h.
The test system of a further data set is MRC5. Briefly: Cytotoxicity against human MRC5 cells assessed as cell viability after 48 hrs by MTT assay. Format: cell-based. The note with it: MRC5, 48 h.
Data set [7] is described as follows: Selectivity ratio of IC50 for human MRC5 cells to IC50 for human A549 cells. Format: ADME, cell-based. The conditions noted are these: MRC5 cells versus A549 cells, read-out: Ratio IC50.
Data set [8] concerns THP-1. In words: Inhibition of LPS-induced TNFalpha production in human THP1 cells at 100 uM after 3 hrs by microplate reader analysis. In kind it is functional. The conditions noted are these: THP-1, 3 h.
The subject of data set [9] is THP-1. In words: Inhibition of LPS-induced TNFalpha production in human THP1 cells at 0.5 uM after 3 hrs by microplate reader analysis. In kind it is functional. The conditions noted are these: THP-1, 3 h.
Data set [10] deals with THP-1. In words: Inhibition of LPS-induced TNFalpha production in human THP1 cells at 10 uM after 3 hrs by microplate reader analysis. The note with it: THP-1, 3 h. Format: functional.
Data set [11] has as its system Rattus norvegicus. Briefly: Inhibition of plasma lipid peroxide in Wistar rat at 20 mg/kg, po qd administered for 7 days measured after 1 hr post last dose by spectrophotometric analysis. Format: functional.
The subject of data set [12] is Rattus norvegicus. Briefly: Inhibition of collagen-induced platelet aggregation in Wistar rat at 20 mg/kg, po qd administered for 7 days measured after 1 hr post last dose by aggregometric analysis. Format: functional.
The subject of data set [13] is Rattus norvegicus. Briefly: Inhibition of A23187-induced TXA2 synthesis in Wistar rat at 20 mg/kg, po qd administered for 7 days measured after 1 hr post last dose by enzyme immuno assay. In kind it is functional.
Data set [14] concerns Rattus norvegicus. Briefly: Induction of NO production in Wistar rat at 1 to 10 mg/kg, po qd administered for 7 days measured after 1 hr post last dose by enzyme immuno assay. Format: functional.
Data set [15] relates to Platelet. In words: Inhibition of collagen-induced platelet aggregation in human platelet rich plasma preincubated for 10 mins. In kind it is functional, cell-free.
Data set [16] concerns Platelet. Briefly: Inhibition of ADP-induced platelet aggregation in human platelet rich plasma preincubated for 10 mins. Format: functional, cell-free.

For the compound `CCCCCCCC/C=C\CCCCCCCC(=O)OCCc1ccc(O)c(O)c1`, the Activity with HeLa came to 38%.

As for `CC(=O)OCCc1ccc(O)c(O)c1`, the figures for the IC50 (with Platelet [1]; in data set [2]) were 10 µM and 32 µM, respectively. Besides, the Activity in the data set on HeLa was 36%. Further, the “inhibition (INH)” value in the data set with Rattus norvegicus [3] is given as 66%; in the data set with Rattus norvegicus [6], 37%. The inhibition of growth at 5 µM in [4] turned out to be 20%. The ED50 in the data set on Rattus norvegicus [5] was found to be 16.1 mg/kg/day.

For the compound `CCCCCCCCCCCCOCCc1ccc(O)c(O)c1`, the IC50 with A549 came to 20 µM; in the data set on MRC5 it was 49 µM. For the same compound, the selectivity ratio in data set [7] came to 2.46.

In turn, `Oc1cc2c(cc1O)C(c1ccccc1)OCC2` (stereo not given) gave an inhibition at 100 µM in the data set on THP-1 [8] of 80%. For the same compound, the inhibition at 0.5 µM in the data set with THP-1 [9] stood at 30%. In the data set on THP-1 [10], 10 µM produced 60% inhibition.

`CCCCCCOCCc1ccc(O)c(O)c1` displayed an IC50 with Platelet [1] of 0.1 µM. Besides, the inhibition in vivo at 20 mg/kg was 84.7% in the data set on Rattus norvegicus [11], 58.7% in the data set with Rattus norvegicus [12] and 58.7% in the data set with Rattus norvegicus [13].

As for `CC(=O)Oc1ccccc1C(=O)O` [ASPIRIN], the ED50 in the data set with Rattus norvegicus [5] was 2.42 mg/kg/day. The “inhibition (INH)” value with Rattus norvegicus [14] was 64%.

In the case of `OCCc1ccc(O)c(O)c1` [HYDROXYTYROSOL], the values for the IC50 in the data set with Platelet [15] and with Platelet [16] were 67 µM and 27 µM, respectively. Besides, the results for the “inhibition (INH)” value in the data set on Rattus norvegicus [3] and in the data set on Rattus norvegicus [6] were 34.2% and 30%, respectively. In addition, the ED50 with Rattus norvegicus [5] is 48.2 mg/kg/day.

In general, IC50 refers to the concentration at which inhibition is half-maximal. Usually inhibition stands for how much of the control response was suppressed. Broadly, the inhibition in vivo is how much of the control response was suppressed.
